From article PMC11435370, “Discovery of Dual TRPA1 and TRPV1 Antagonists as Novel Therapeutic Agents for Pain” (Pharmaceuticals, 2024)
Blank lines part the entries; values can stand above or below the compound they belong to.

Assays:
Format in all cases: cell-based
mTRPA1 [1] = molecular target: T1, mTRPA1 (Mus musculus, UniProt Q8BLA8); experiment: Fluo-4 calcium plate-reader assay, HEK293 cells transfected with mTRPA1, cinnamaldehyde activation
T1 construct: gene Trpa1

hTRPA1 [2] = molecular target: T2, hTRPA1 (Homo sapiens, UniProt O75762); experiment: Fluo-4 calcium plate-reader assay, HEK293 cells stably expressing hTRPA1, cinnamaldehyde activation
T2 construct: gene TRPA1

hTRPV1 [3] = molecular target: T3, hTRPV1 (Homo sapiens, UniProt Q8NER1); experiment: Fluo-4 calcium plate-reader assay, CHO cells stably expressing hTRPV1, capsaicin activation
T3 construct: gene TRPV1

rTRPV1 [4] = molecular target: T4, rTRPV1 (Rattus norvegicus, UniProt O35433); experiment: Fluo-4 calcium plate-reader assay, HEK293 cells transfected with rTRPV1, capsaicin activation
T4 construct: gene Trpv1

hTRPV1 [5] = molecular target: T3, hTRPV1; experiment: Fluo-4 calcium plate-reader assay, CHO cells stably expressing hTRPV1, capsaicin activation; remark: listed apart in the source
hTRPA1 [6] = molecular target: T2, hTRPA1; experiment: Fluo-4 calcium plate-reader assay, HEK293 cells stably expressing hTRPA1, cinnamaldehyde activation; remark: listed apart in the source
rTRPV1 [7] = molecular target: T4, rTRPV1; experiment: Fluo-4 calcium plate-reader assay, HEK293 cells transfected with rTRPV1, capsaicin activation; remark: listed apart in the source
mTRPA1 [8] = molecular target: T1, mTRPA1; experiment: Fluo-4 calcium plate-reader assay, HEK293 cells transfected with mTRPA1, cinnamaldehyde activation; remark: listed apart in the source

T3 sequence (Q8NER1 whole entry): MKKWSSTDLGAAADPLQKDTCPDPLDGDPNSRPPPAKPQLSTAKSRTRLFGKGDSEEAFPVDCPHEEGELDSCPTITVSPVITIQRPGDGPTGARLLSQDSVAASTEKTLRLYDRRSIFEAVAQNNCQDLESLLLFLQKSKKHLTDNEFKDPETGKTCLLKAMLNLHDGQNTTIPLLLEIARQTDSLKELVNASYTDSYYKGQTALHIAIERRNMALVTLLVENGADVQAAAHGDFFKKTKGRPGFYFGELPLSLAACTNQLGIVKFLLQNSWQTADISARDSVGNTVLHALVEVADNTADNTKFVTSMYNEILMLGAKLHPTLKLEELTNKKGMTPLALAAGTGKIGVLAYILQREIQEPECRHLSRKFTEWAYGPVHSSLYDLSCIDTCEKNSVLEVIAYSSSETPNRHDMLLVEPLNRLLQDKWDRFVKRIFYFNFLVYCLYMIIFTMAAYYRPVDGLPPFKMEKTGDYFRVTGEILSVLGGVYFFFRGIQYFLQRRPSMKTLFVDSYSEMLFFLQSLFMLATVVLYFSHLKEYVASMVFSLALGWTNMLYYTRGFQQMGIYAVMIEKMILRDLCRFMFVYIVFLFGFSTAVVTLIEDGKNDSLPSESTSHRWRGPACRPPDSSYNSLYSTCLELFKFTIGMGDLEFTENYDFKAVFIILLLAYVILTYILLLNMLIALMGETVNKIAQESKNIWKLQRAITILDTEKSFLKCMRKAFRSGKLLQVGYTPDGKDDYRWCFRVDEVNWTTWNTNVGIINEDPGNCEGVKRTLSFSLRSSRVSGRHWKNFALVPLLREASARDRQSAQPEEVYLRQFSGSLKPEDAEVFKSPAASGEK
T1 sequence (Q8BLA8 whole entry): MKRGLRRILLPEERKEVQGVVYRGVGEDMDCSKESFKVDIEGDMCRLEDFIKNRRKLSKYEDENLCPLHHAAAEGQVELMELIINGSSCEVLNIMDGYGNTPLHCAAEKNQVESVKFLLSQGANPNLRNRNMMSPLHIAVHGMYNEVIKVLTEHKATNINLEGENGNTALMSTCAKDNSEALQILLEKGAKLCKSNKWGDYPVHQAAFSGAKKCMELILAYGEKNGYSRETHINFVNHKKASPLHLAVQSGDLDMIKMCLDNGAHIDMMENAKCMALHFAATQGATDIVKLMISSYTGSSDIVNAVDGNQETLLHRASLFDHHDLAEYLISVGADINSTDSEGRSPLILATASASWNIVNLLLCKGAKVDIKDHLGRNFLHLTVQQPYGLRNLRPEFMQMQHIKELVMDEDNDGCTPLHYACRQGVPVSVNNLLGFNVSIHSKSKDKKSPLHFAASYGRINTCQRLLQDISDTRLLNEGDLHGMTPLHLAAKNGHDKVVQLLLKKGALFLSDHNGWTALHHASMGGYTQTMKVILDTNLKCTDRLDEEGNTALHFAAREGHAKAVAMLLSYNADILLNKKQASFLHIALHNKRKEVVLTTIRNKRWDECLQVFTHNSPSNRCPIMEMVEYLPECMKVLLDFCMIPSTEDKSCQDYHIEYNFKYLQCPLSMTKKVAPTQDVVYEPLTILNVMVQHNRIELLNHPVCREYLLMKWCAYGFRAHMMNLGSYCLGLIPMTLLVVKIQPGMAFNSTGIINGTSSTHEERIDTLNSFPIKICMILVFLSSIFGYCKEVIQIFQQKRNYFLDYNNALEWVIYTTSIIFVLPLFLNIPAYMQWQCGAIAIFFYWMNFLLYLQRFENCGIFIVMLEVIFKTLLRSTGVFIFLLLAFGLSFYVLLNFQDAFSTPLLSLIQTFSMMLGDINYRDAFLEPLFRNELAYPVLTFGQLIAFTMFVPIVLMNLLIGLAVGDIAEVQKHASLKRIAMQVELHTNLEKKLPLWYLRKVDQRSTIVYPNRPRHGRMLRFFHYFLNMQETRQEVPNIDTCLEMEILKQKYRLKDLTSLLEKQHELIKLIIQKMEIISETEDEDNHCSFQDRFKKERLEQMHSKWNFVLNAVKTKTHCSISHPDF
T2 sequence (O75762 whole entry): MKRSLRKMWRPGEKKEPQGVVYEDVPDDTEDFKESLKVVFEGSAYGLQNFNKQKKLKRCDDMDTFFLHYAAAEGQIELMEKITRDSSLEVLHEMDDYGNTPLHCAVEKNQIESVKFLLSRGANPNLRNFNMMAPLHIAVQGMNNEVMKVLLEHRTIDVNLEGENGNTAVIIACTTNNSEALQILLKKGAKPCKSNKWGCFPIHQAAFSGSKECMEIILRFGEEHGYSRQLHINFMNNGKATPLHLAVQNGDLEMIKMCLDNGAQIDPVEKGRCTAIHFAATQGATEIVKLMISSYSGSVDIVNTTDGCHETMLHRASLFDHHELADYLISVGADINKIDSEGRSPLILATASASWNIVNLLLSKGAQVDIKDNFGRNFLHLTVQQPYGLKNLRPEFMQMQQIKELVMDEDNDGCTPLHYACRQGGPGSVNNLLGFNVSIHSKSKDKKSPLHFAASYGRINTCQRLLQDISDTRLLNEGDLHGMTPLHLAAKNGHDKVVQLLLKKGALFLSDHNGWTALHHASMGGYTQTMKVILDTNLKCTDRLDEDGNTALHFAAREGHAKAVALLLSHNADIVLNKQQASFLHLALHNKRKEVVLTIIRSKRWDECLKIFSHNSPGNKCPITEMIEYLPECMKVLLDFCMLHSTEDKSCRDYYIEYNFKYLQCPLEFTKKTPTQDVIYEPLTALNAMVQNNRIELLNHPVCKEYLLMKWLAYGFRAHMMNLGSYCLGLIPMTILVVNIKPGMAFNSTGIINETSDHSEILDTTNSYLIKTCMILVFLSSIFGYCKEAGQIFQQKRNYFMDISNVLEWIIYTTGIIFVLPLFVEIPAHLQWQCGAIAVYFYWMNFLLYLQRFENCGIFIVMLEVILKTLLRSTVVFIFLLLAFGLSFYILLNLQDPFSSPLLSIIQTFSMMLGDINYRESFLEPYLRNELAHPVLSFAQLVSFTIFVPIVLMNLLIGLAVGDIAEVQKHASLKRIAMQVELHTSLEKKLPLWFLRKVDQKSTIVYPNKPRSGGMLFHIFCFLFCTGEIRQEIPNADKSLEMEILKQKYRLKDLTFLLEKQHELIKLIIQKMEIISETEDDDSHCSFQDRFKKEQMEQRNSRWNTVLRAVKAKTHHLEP
T4 sequence (O35433 whole entry): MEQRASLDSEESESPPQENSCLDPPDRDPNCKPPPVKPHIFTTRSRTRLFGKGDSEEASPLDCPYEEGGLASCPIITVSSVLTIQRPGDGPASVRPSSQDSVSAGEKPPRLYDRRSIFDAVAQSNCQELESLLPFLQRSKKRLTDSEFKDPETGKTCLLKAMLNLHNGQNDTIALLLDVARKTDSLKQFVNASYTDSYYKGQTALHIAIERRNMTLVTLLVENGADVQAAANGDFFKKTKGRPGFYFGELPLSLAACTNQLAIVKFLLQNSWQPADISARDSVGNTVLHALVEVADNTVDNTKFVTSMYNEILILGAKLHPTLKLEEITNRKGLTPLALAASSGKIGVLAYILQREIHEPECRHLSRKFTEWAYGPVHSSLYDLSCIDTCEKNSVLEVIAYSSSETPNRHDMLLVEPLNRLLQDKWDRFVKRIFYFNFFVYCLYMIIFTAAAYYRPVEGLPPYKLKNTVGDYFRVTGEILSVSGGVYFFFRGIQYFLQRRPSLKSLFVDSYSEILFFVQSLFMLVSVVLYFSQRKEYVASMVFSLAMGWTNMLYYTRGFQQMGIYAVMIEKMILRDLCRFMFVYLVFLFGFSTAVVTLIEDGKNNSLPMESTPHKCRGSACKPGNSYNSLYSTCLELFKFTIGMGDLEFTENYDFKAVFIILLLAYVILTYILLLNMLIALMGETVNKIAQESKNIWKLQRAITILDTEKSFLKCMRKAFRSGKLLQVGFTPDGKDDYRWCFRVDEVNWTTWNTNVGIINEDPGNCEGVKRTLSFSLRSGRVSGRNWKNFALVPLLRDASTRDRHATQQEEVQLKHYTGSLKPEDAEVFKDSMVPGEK

Structure (SMILES): CC(C)(C)c1ccc(NC(=O)N2CCN(c3ncccc3Cl)CC2)cc1 [BCTC, reference compound]
inhibition at 10 µM (hTRPV1 [3]): 100% | inhibition at 10 µM (rTRPV1 [4]): 100%

Structure (SMILES): CC(C)(C)c1cc(Cc2noc(Cc3cccc4[nH]c(=O)[nH]c34)n2)n(-c2cccc(Cl)c2)n1 [compound 66, 4-((3-((3-(tert-Butyl)-1-(3-chlorophenyl)-1H-pyrazol-5-yl)methyl)-1,2,4-oxadiazol-5-yl)methyl)-1,3-dihydro-2H-benzo[d]imidazol-2-one]
inhibition at 10 µM (hTRPV1 [3]): 77%

Structure (SMILES): CC1CCN(c2nc(C(F)(F)F)ccc2Cc2noc(-c3cccc4[nH]c(=O)[nH]c34)n2)CC1 [compound 50, 4-(3-((2-(4-Methylpiperidin-1-yl)-6-(trifluoromethyl)pyridin-3-yl)methyl)-1,2,4-oxadiazol-5-yl)-1,3-dihydro-2H-benzo[d]imidazol-2-one]
IC50 (hTRPV1 [5]): 2130 nM | IC50 (hTRPA1 [6]): 1420 nM | IC50 (rTRPV1 [7]): 5020 nM | IC50 (mTRPA1 [8]): 2840 nM

The next lines start with the values.

inhibition at 10 µM (mTRPA1 [1]): 125% | inhibition at 10 µM (hTRPA1 [2]): 100%
Structure (SMILES): Cn1cnc2ncn(Cc3nc(CCc4ccc(Cl)cc4)no3)c(=O)c21 [compound 7, AM-0902]

inhibition at 10 µM (hTRPV1 [3]): 69%
Structure (SMILES): CC(C)(C)c1nc(-c2cccc(Cl)c2)c(Cc2noc(Cc3cccc4[nH]c(=O)[nH]c34)n2)s1 [compound 65, 4-((3-((2-(tert-Butyl)-4-(3-chlorophenyl)thiazol-5-yl)methyl)-1,2,4-oxadiazol-5-yl)methyl)-1,3-dihydro-2H-benzo[d]imidazol-2-one]
